Reference: patent US20070060605A1, “Compositions and methods for inhibiting platelet activation and thrombosis” (priority 2001, published 2007)
Like-named read-outs stand apart in the source and are kept apart here.

Columns and labels:
Assay type in all cases: cell-based, human
[1] = test system: platelets; experiment: Agonist-induced platelet granule secretion / activation (P-selectin expression by flow cytometry; ADP/ATP release); conditions: for Inhibition of PMA-induced platelet responses: even at millimolar concentrations
Description: In order to monitor ATP release, a cocktail of 100 μM SFLLR (synthesized using solid phase Fmoc chemistry on an Applied Biosystems model 430A peptide synthesizer) and 3 mg/ml of luciferin/luciferase (Sigma, St. Louis, Mo.) in a volume of 10 μl is added to 20 μl of PRP. Samples are immediately analyzed for luminescence. Activated platelets supply the ATP necessary for luminescence of the luciferin/luciferase assay. Assays can be performed at high throughput through use of a microtiter plate system, e.g., 384-well plates and a Multidrop 384 (Thermo Labsystems, Helsinki), read with a high density imaging system, e.g., the Tundra system (Imaging Research, St. Catherine's, Ontario).
(§1) In order to assay platelet activation by cell surface marker expression, fresh PRP is isolated from donors who have not ingested aspirin for two weeks prior to donation. PRP (40 μl) is incubated with known or suspected inhibitor in DMSO or DMSO alone for 15 min. The sample is then incubated with the indicated agonist (e.g., SFLLR) for 10 min. Following incubation of the sample with the indicated agonist, 10 μl of reaction mixture is transferred to 5 μl of phycoerythrin (PE)-conjugated AC 1.2 anti-P-selectin antibody (for assessment of P-selectin surface expression) or fluorescein isothiocyanate (FITC)-conjugated PAC-1 antibody (for assessment of GPIIbIIIa activation). PBS (500 μl) is added to the sample after a 20 min incubation and the platelets are analyzed immediately by flow cytometry. Flow cytometry can be performed using, for example, a Becton-Dickinson FACSCalibur flow cytometer or its equivalent. Fluorescent channels are set at logarithmic gain. Ten thousand particles are acquired for each sample. A 530/30 band pass filter is used for FL-1 fluorescence. A 585/42 band pass filter is used for FL-2 fluorescence. FITC is measured in the FL-1 channel and PE is measured in the FL-2 channel. Data are analyzed using, for example, CellQuest software on a Macintosh PowerPC, or their equivalents.
Compounds were tested for the ability to inhibit agonist-induced ADP/ATP release from platelet dense granules using a luciferin-luciferase reporter system. In this assay, compounds were incubated with platelet-rich plasma (PRP) for 30 min. A cocktail of the platelet agonist and luciferin-luciferase was then added to the wells. Plates were immediately analyzed using a Tundra high density luminescence imager. […] As a control, compounds were also screened in a platelet-free assay for the ability to inhibit luciferin-luciferase upon exposure to ATP.
Each of the compounds was tested for inhibition of platelet activation in response to the agonists SFLLR (a thrombin mimic), U46619 (a thromboxane A2 mimic), ADP and the phorbol ester PMA.
(§2) Compounds were also tested by flow cytometry for the inhibition of SFLLR-induced GPIIbIIIa activation and P-selectin expression. In these experiments, freshly obtained PRP was prepared from healthy volunteers who had not ingested aspirin for two weeks prior to donation. Forty μl of PRP was incubated with inhibitor in DMSO or DMSO alone for 15 min. The sample was then incubated with the indicated agonist for 10 min. Following incubation of the sample with the indicated agonist, 10 μl of reaction mixture was transferred to 5 μl of PE-conjugated AC1.2 anti-P-selectin antibody (for assessment of P-selectin surface expression) or FITC-conjugated PAC-1 antibody (for assessment of GPIIbIIIa activation). PBS (500 μl) was added to the sample after a 20 min incubation and the platelets were analyzed immediately by flow cytometry. Flow cytometry was performed using a Becton-Dickinson FACSCalibur flow cytometer. Fluorescent channels were set at logarithmic gain. Ten thousand particles were acquired for each sample. A 530/30 band pass filter was used for FL-1 fluorescence. A 585/42 band pass filter was used for FL-2 fluorescence. FITC was measured in the FL-1 channel and PE was measured in the FL-2 channel.

[2] = test system: PGE1-induced cAMP levels in platelets; experiment: Augmentation of PGE1-induced cAMP levels in platelets; conditions: no single concentration
Description: One frequent target of anti-platelet agents is phosphodiesterase III (PDE III). […] The assay is performed as described by Liao et al., 1998, Eur J Pharmacol 349,107-114, incorporated herein by reference. Briefly, aliquots of PRP are exposed to increasing concentrations of the agent for 20 minutes. The PRP is then challenged with 1 μM PGE1 for 2 min The reaction is stopped by adding 10 mM EDTA, followed immediately by boiling for 2 min. The mixture is cooled to 4° C. and the precipitated protein is pelleted. cAMP content in the supernatant is quantitated using an enzyme immunoassay kit (Pharmacia-Amersham, N.J.) according to the instructions of the manufacturer.
In order to assess whether the compounds useful according to the invention might act through inhibition phosphodiesterase III, each was tested for its effect on PGE1-induced cAMP increase. Determination of platelet cAMP levels was performed as described by Liao et al., 1998, supra. Aliquots of PRP were exposed to increasing concentrations of the indicated compounds for 20 min. PRP was then challenged with 1 μM PGE1 for 2 min. The reaction was stopped with the addition of 10 mM EDTA followed immediately by boiling for 2 min. The mixture was then cooled to 4° C. and the precipitated protein was pelleted. Cyclic AMP content in the supernatant was then quantified using an enzyme immunoassay kit (Pharmacia-Amersham, N.J.) according to the instructions of the manufacturer.

[3] = test system: platelet GPIIbIIIa; experiment: SFLLR-induced GPIIbIIIa activation (PAC-1 antibody, flow cytometry); conditions: Homo sapiens, Platelet; agonist SFLLR; read-out: IC50s of inhibition of platelet GPIIbIIIa activation induced with SFLLR
Description: as §1
as §2, with “channel. Data were analyzed using CellQuest software on a MacIntosh PowerPC.” for “channel.”

[4] = Homo sapiens, Platelet, agonists U-46619, ADP, PMA, read-out: IC50 U-46619-, ADP-, and PMA-induced platelet responses
[5] = Homo sapiens, Platelet, agonist ADP, read-out: IC50s of inhibition of platelet granule secretion induced with ADP
[6] = Homo sapiens, Platelet, agonist PMA, read-out: IC50s of inhibition of platelet granule secretion induced with PMA
[7] = Homo sapiens, Platelet, agonist U-46619, read-out: IC50s of inhibition of platelet granule secretion induced with U-46619
[8] = Homo sapiens, Platelet, agonists SFLLR and U-46619, read-out: IC50 SFLLR- and U-46619-induced activation
[9] = Homo sapiens, Platelet, agonist SFLLR, read-out: IC50s of inhibition of platelet granule secretion induced with SFLLR
[10] = Homo sapiens, Platelet, agonist SFLLRN/SFLLR, human platelets, read-out: IC50 SFLLRN-induced P-selectin expression, flow cytometry

SMILES	IC50 [1, 5]	IC50 [1, 6]	IC50 [1, 7]	IC50 [1, 9]	IC50 [3]	also measured
CCCCn1c2c(c(=N)c3ccccc31)CCC2 [II]						IC50 [1, 4]: ~500 µM
Cn1cc(/C=N/NC(N)=O)c2ccccc21 [2-[(1-methyl-1H-indol-3-yl)methylene]-hydrazinecarboxamide]	1000 µM	1000 µM	20 µM	50 µM		IC50 [1, 8]: 20 to 50 µM; Effect on ADP- and PMA-induced activation ([1]; agonists ADP and PMA): little effect; Effect on PGE1-stimulated cAMP levels in platelets [2]: augmented
CCCn1c2c(c(=N)c3ccccc31)CCC2 [JF081204{3C}]						IC50 [1, 10]: 2 to 150 µM
O=C1NC(=O)N(c2cccc3ccccc23)C(=O)/C1=C\c1ccco1 [5-(2-furanylmethylene)-1-1-naphthalenyl)-2,4,6(1H, 3H, 5H)-pyrimidinetrione]					100 µM	IC50 ([1]; Homo sapiens, Platelet, read-out: IC50s of inhibition of platelet granule secretion induced with ADP): 60 µM; IC50 ([1]; Homo sapiens, Platelet, read-out: IC50s of inhibition of platelet granule secretion induced with PMA): 150 µM; IC50 ([1]; Homo sapiens, Platelet, read-out: IC50s of inhibition of platelet granule secretion induced with SFLLR): 100 µM; IC50 ([1]; Homo sapiens, Platelet, read-out: IC50s of inhibition of platelet granule secretion induced with U-46619): 50 µM
Nc1cc2cccnc2c2ncccc12 [[1,10]Phenanthroline-5-ylamine]	50 µM	> 1000 µM	30 µM	50 µM	50 µM	IC50 ([1]; agonist ADP, read-out: IC50s of inhibition of platelet granule secretion induced with ADP): 100 µM; Inhibition of PMA-induced platelet responses ([1]; agonist PMA): did not inhibit; Effect on PGE1-stimulated cAMP levels in platelets [2]: failed to augment
CCCn1c2c(c(=N)c3ccccc31)CCC2 [I]						IC50 [1, 4]: ~500 µM
CCCCCn1c2c(c(=N)c3ccccc31)CCC2 [III]						IC50 [1, 4]: ~500 µM
O=C(CN1CCOCC1)N1c2ccccc2Sc2ccc(C(F)(F)F)cc21 [10H-phenothiazine, 10-(4-morpholinylacetyl)-2-(trifluoromethyl)]	150 µM	85 µM	100 µM	80 µM	50 µM	
CCCCn1c2c(c(=N)c3ccccc31)CCC2 [JF081204{4C}]						IC50 [1, 10]: 2 to 150 µM
CC1CC(=O)NN=C1c1ccc(Cl)cc1 (centres unmarked) [Structure 9, 6-(4-chlorophenyl)-5-methyl-4,5-dihydro-5 methyl-3(2H)-pyridazinone]	8 µM					ADP-induced responses inhibited less effectively than SFLLR and U46619 responses ([1]; ADP vs SFLLR and U46619): approximately 20 fold; IC50 [1, 8]: 0.3 µM; Inhibition of PMA-induced platelet activation ([1]; agonist PMA): did not inhibit
CCOC(=O)C1(C2(O)C(=O)c3ccccc3C2=O)CCCC1=O (centres unmarked) [1-(2-hydroxy-1,3-dioxo-indan-2-yl)-2-oxo-cyclopentanecarboxylic acid ethyl ester]	50 µM	> 1000 µM	30 µM	50 µM	50 µM	Inhibition of PMA-induced platelet responses ([1]; agonist PMA): no activity
CC(=O)OC(CC(=O)c1ccc(Cl)cc1Cl)C(Cl)(Cl)Cl (centres unmarked) [acetic acid 3-(2,4-dichlorophenyl)-3-oxo-1-trichloromethyl-propyl ester]	200 µM	200 µM	20 µM	50 µM	30 µM	IC50 ([1]; Homo sapiens, Platelet, agonists ADP and PMA, read-out: IC50 ADP- and PMA-induced activation): ~200 µM; IC50 [1, 8]: 20 to 50 µM
